How the values were obtained:
[1] = system: T. b. brucei 427WT bloodstream trypomastigotes; assay: microbe, parasite or virus in culture; format: cell-based, Trypanosoma brucei brucei; details: Trypanosoma brucei, 72 h; bloodstream trypomastigotes; resazurin; 48 h + 24 h; n=4; read-out: EC50 T. b. b. 427WT
Method: (§1) Organisms and culture media: Only bloodstream trypomastigotes of T. b. brucei were used throughout this study. […] Parasites were cultured in vented flasks at 37 °C and 5 % CO2 atmosphere and they were passaged every 3 days. Bloodstream forms of T. congolense savannah‐type strain IL3000 were cultured in basal MEM medium, supplemented by 10 % fresh goat serum, 14 μL of β‐mercaptoethanol, 800 μL of 200 mM glutamine solution, and 10 mL of penicillin/streptomycin solution per liter of medium (pH 7.3).48 T. congolense were cultured in six‐well plates at 34 °C and 5 % CO2.
(§2) In brief, the assays were performed in 96‐well plates with 2×10^5 cells per well for T. b. brucei or 5×10^5 cells per well for T. congolense, in their respective culture media. First, 200 μL of test compounds’ solutions (400 μM, in T. brucei or T. congolense medium as appropriate) was added to the first well of each 12‐well row, from which doubling dilutions were conducted over one row per test compound. […] Fluorescence was detected using a FLUOstar Optima (BMG Labtech, Durham, NC, USA) at wavelength of 540 nm (excitation), 590 nm (emission). EC50 values were calculated by nonlinear regression using an equation for a sigmoidal dose–response curve with variable slope using Prism 5.0 (GraphPad Software Inc., San Diego, CA, USA).

T. b. brucei B48 = assay: microbe, parasite or virus in culture; format: cell-based, Trypanosoma brucei brucei
Method: as §1, §2

[2] = system: T. b. brucei aqp2/aqp3‐KO; assay: microbe, parasite or virus in culture; format: cell-based, Trypanosoma brucei brucei
Method: as §1, §2

T. congolense IL3000 WT = assay: In vitro drug susceptibility assay (resazurin), T. congolense; format: cell-based; details: Trypanosoma congolense, bloodstream forms, read-out: EC50 T. c. IL3000 WT
Method: as §1, §2

T. b. brucei ISMR1 = assay: In vitro drug susceptibility assay (resazurin), dyskinetoplastic ISMR1 strain; format: cell-based, Trypanosoma brucei brucei; details: isometamidium-resistant line
Method: as §1, §2

[3] = system: T. b. rhodesiense (STIB 900 strain); design: method as in earlier work; details: different resazurin protocol, ref 14a, read-out: IC50 (called EC50) against T. b. rhodesiense; cited from earlier work
L6 mammalian cells = system: L6 mammalian cells; design: method as in earlier work; details: versus T. b. rhodesiense STIB 900; ref 14a; cited from earlier work
[4] = system: T. b. brucei 427WT bloodstream trypomastigotes; assay: ATP assay on T. b. brucei (luciferin-luciferase); format: cell-based, Trypanosoma brucei brucei; details: oligomycin 2.0 μg/mL, positive control
Method: (§3) ATP assay on T. b. brucei and HFF cells: Changes in cellular ATP levels due to the exposure of trypanosomes to the test compounds (0.5×EC50) were monitored using the Molecular Probes ATP Determination Kit (A22066, Invitrogen Detection Technologies), based on the luciferin–luciferase bioluminescent enzymatic reaction. Bloodstream trypomastigote cultures of T. brucei s427WT were incubated with and without test compound, and, at each predetermined incubation time, 10^7 cells of each sample were transferred into a microfuge tube and centrifuged at 2000×g for 10 min at 4 °C. The pellet was washed twice with 1 mL of 50 mM Tris⋅HCl (pH 7.4) containing 0.1 mM DTT, and then resuspended in 200 μL of the same buffer. The cells were lysed by sonication on ice (twice for 10 s separated by 30 s), using a Soniprep 150 (MSE) at 8 μm amplitude. The samples were centrifuged at 10 000×g for 10 min at 4 °C and the supernatant was collected, instantly frozen in liquid nitrogen, and stored at −80 °C. Oligomycin (2.0 μg mL^−1) was used as positive control. ATP levels were quantified using the contents of the kit following the manufacturer's instructions; 90 μL of standard reaction solution was added to each well of a 96‐well plate and the background luminescence was recorded in a FLUOstar OPTIMA fluorimeter; 10 μL of each sample was then added to each well. The plate was incubated at 28 °C for 15 min and the luminescence was measured, including a standard curve with an ATP concentration ranging from 1 nM to 1 μM to allow the calculation of the ATP concentrations in each sample. The ATP content was measured at 0, 0.5, 1, 2, 4, 8 and 12 h of incubation with test sample.

HFF cells = assay: ATP assay on HFF cells; format: cell-based, human; details: 22 at 200 μM, oligomycin 2 μg/mL; 0, 4, 8 h
Method: as §3, with “same buffer. […] ATP levels” for “same buffer. The cells were lysed by sonication on ice (twice for 10 s separated by 30 s), using a Soniprep 150 (MSE) at 8 μm amplitude. The samples were centrifuged at 10 000×g for 10 min at 4 °C and the supernatant was collected, instantly frozen in liquid nitrogen, and stored at −80 °C. Oligomycin (2.0 μg mL^−1) was used as positive control. ATP levels”, “test sample. […]” for “test sample.”

Compound | EC50 [1] [µM] | RF, resistance factor relative to WT (B48) (T. b. brucei B48; B48 versus 427WT) | EC50 (T. b. brucei B48; Trypanosoma brucei, read-out: EC50 T. b. b. B48) [µM] | EC50 ([2]; Trypanosoma brucei, read-out: EC50 T. b. b. aqp2/aq3‐KO) [µM] | RF, resistance factor relative to WT (aqp2/aqp3-KO) ([2]; aqp2/aqp3-KO versus 427WT) | EC50 (T. congolense IL3000 WT) [µM] | EC50 in ISMR1 relative to 427WT tested in parallel (T. b. brucei ISMR1) | IC50 [3] [µM] | selectivity index (SI) with respect to L6 mammalian cells (L6 mammalian cells) | effect on ATP levels relative to 20 and 22 [4] | effect on cellular ATP levels of HFF cells (HFF cells)
O=C1C=C(Oc2ccccc2)C(=O)c2ccccc21 [Compound 4, 2‐phenoxynaphthalene‐1,4‐dione, reference compound] | 48.7 ± 0.8 | 1.3 | 63 ± 0.4 | 62.4 ± 0.8 | 1.3 | 108 ± 2 | did not show a significant increase in the EC50 values | 0.08 | 74 | – | –
CC[C@H]1/C=C/C=C/C[C@@H](C)[C@H](O)[C@@](C)(O)C(=O)[C@@H](C)[C@H](O)[C@@H](C)C(=O)[C@@H](C)[C@H](O)[C@@H](C)/C=C/C(=O)O[C@@H]2[C@H](C)[C@H](CC1)O[C@]1(CC[C@H](C)[C@H](C[C@@H](C)O)O1)[C@H]2C [oligomycin, reference compound] | – | – | – | – | – | – | – | – | – | depressed the ATP levels even further | strong effect even at 4 h

Source: paper PMC6686156, “Discovery of Sustainable Drugs for Neglected Tropical Diseases: Cashew Nut Shell Liquid (CNSL)‐Based Hybrids Target Mitochondrial Function and ATP Production in Trypanosoma brucei” (Chemmedchem, 2019)
